Laboratory results reported in patent US9073929B2, “Aldosterone synthase inhibitors” (ElexoPharm GmbH, priority 2011, dated 2015).

Columns and labels:
human CYP11B1 = target: T1, human CYP11B1 (Homo sapiens, UniProt P15538); test: V79-Human-CYP11B1 cell assay (cortisol HTRF); type: cell-based; conditions: V79-hCYP11B1 cells, 250 nM 11-deoxycortisol, 3 hours
T1 construct: expressed in transfected cells; host or cells: V79MZh11B1 cells
T1 sequence (P15538 25-503): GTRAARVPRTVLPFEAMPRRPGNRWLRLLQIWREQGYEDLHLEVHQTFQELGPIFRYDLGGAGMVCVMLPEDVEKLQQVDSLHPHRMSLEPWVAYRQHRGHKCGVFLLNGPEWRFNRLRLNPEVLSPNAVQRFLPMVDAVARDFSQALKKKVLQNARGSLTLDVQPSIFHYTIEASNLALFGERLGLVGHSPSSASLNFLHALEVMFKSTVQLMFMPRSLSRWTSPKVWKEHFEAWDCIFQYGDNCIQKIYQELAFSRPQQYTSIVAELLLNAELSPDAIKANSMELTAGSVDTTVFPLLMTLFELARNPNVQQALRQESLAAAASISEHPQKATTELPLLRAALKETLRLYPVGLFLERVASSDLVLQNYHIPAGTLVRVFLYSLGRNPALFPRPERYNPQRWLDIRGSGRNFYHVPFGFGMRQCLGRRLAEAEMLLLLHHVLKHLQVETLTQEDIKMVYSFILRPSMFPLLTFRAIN
Description: Methods for V79-Human-CYP11B2 and V79-Human-CYP11B1 Assays: V79 cell lines stably expressing the either the human CYP11B2 or the human CYP11B1 enzyme were generated using a standard transfection protocol. V79 cells were transfected with plasmids pTriEx3-Hygro-hCyp11B2 or pTriEx3-Hygro-hCyp11B1 using Lipofectamine2000 reagent. […] Single cell clones were generated by infinite dilution in DMEM supplemented with 10% FBS and 400 μg/mL hygromycin until single colonies were obtained. […] For testing of inhibitors, cells were harvested at 80% confluency with 0.5% Trypsan-EDTA, washed once in PBS, and reconstituted in DMEM+0.1% BSA media at a cell concentration of 400,000 cells/mL. 25 μl of cells were added to a 384 well tissue culture treated plate and mixed with 0.25 μl of inhibitor or DMSO (1% final DMSO concentration) for 1 hour at 37° C., 5% CO2. […] The reaction was carried out for 3 hours at 37° C., 5% CO2 and was stopped by harvesting the supernatants. […] IC50's for the inhibitor were determined by plotting the amount of product formed against the concentration of inhibitor using sigmoidal dose-response curve (variable slope) fit in GraphPad.

human CYP11B2 = target: T2, human CYP11B2 (Homo sapiens, UniProt P19099); test: V79-Human-CYP11B2 cell assay (aldosterone HTRF); type: cell-based; conditions: V79-hCYP11B2 cells, 125 nM 11-deoxycorticosterone, 3 hours
T2 construct: expressed in transfected cells; host or cells: V79 cells (clone V79-hCYP11B2-CLE9)
T2 sequence (P19099 25-503): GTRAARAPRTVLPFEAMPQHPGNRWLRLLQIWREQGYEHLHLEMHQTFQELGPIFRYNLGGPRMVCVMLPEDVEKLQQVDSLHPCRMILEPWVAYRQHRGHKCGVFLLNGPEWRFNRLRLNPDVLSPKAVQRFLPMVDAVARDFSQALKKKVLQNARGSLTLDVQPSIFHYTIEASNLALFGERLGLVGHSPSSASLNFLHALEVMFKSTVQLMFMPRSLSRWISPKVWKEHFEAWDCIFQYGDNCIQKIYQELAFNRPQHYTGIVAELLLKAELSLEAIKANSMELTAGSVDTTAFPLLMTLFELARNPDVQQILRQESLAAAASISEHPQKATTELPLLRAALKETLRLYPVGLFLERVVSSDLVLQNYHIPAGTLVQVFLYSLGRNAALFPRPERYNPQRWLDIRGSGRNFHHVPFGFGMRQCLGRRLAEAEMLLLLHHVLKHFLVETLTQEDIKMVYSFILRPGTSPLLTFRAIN
Description: Methods for V79-Human-CYP11B2 and V79-Human-CYP11B1 Assays:
V79 cell lines stably expressing the either the human CYP11B2 or the human CYP11B1 enzyme were generated using a standard transfection protocol. V79 cells were transfected with plasmids pTriEx3-Hygro-hCyp11B2 or pTriEx3-Hygro-hCyp11B1 using Lipofectamine2000 reagent. V79 cells that stably express the human CYP11B2 or human CYP11B1 enzyme were selected for and maintained in DMEM supplemented with 10% FBS and 400 μg/mL hygromycin for ˜2 weeks. Single cell clones were generated by infinite dilution in DMEM supplemented with 10% FBS and 400 μg/mL hygromycin until single colonies were obtained. Clones V79-hCYP11B2-CLE9 and V79-hCYP11B1-8C7, were determined to produce the most aldosterone and cortisol, respectively, and were selected for inhibitor screening. […] The amount of product in the supernatant (aldosterone for CYP11B2 assay and cortisol for the CYP11B1 assay) was measured using HTRF-based assay kit (Aldosterone HTRF-CisBio#64ALDPEB, Cortisol HTRF-CisBio #631DC002-CORT). IC50's for the inhibitor were determined by plotting the amount of product formed against the concentration of inhibitor using sigmoidal dose-response curve (variable slope) fit in GraphPad.

| IC50 (human CYP11B1) | IC50 (human CYP11B2) | Structure (SMILES) |
| --- | --- | --- |
| 527 nM | – | Cc1c(-c2cc(Cl)c3c(c2)CCc2nnc(C)n2-3)cncc1C(C)(O)C(F)(F)F (centres unmarked) [Example 38, 1-(5-(9-chloro-1-methyl-4,5-dihydro-[1,2,4]triazolo[4,3-a]quinolin-7-yl)-4-methylpyridin-3-yl)-1,1,1-trifluoropropan-2-ol] |
| 157 nM | 17 nM | COC(=O)C1(c2cncc(-c3ccc4c(c3)CCc3nncn3-4)c2)CC1 [Step D, p 76, methyl 1-[5-(4,5-dihydro[1,2,4]triazolo[4,3-a]quinolin-7-yl)-3-pyridinyl]cyclopropanecarboxylate] |
| 69 nM | – | Cc1c(-c2cc(Cl)c3c(c2)CCc2nnc(C)n2-3)cncc1C(C)(O)C(F)(F)F (centres unmarked) [Example 37, 1-(5-(9-chloro-1-methyl-4,5-dihydro-[1,2,4]triazolo[4,3-a]quinolin-7-yl)-4-methylpyridin-3-yl)-1,1,1-trifluoropropan-2-ol] |
| 1500 nM | – | Cc1c(F)cncc1-c1cc(F)c2c(c1)CCc1nncn1-2 [Example 17, 9-fluoro-7-(5-fluoro-4-methylpyridin-3-yl)-4,5-dihydro-[1,2,4]triazolo[4,3a] quinoline] |
